Measured values reported in US6362179B1, “Salts of an optically-active sulfoxide derivative” (Sankyo Company, Limited, priority 1997, dated 2002).

Legend:
NK1 receptors = NK1 receptors (Homo sapiens, UniProt P25103); test: Pharmacological test of antagonistic activity against NK1 receptors in vitro; settings: test made by the present inventors
NK2 receptor = target: T1, NK2 receptor (Cavia porcellus, UniProt Q64077); test: Inhibitory effect against bronchoconstriction induced with [Nle10]-NKA[4-10]; assay type: in vivo, guinea pig; settings: for ID50 (mg/kg, p.o.): male Hartley guinea pigs, oral administration one hour before [Nle10]-NKA[4-10] (4 μg/kg i.v.), AUC of airway pressure
T1 construct: bronchoconstriction induced with [Nle^10]-NKA[4-10], an NK2 receptor agonist; from tissue; host or cells: living male Hartley guinea pig; airway pressure (Konzett-Roessler)
T1 sequence (Q64077 1-402): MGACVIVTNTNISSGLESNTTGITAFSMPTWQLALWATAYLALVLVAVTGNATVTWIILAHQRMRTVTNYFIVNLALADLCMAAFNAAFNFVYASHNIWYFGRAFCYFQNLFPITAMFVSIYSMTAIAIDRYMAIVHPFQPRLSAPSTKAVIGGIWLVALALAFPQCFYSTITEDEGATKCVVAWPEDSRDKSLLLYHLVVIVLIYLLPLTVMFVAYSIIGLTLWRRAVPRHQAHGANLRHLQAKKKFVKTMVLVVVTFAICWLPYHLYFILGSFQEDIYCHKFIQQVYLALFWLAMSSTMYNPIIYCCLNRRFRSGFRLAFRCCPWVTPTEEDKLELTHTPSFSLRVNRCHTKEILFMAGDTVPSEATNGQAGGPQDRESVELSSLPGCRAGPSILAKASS

NK1 receptor = target: T2, NK1 receptor (Cavia porcellus, UniProt P30547); test: Inhibitory effect against increased vascular permeability induced by substance P; assay type: in vivo, guinea pig; settings: male Hartley guinea pigs; for ID50 (mg/kg, p.o.): oral administration 1 hour before SP (1 μg/kg i.v.), Evans blue leakage into primary bronchus; for Inhibitory rate (%) on oral administration at 3.3 mg/kg: 3.3 mg/kg p.o. 1 hour before SP, pigment leakage
T2 construct: increased vascular permeability induced by substance P (SP), an NK1 receptor agonist; from tissue; host or cells: living male Hartley guinea pig; pigment leakage at the primary bronchus
Method: Inhibitory Effect Against Increased Vascular Permeability
The inhibitory effect on increased vascular permeability induced by substance P (SP), an NK1 receptor agonist, was assessed based on the amount of pigment leakage as an index using guinea pigs (body weight: approx. 400 g, male Hartley guinea pigs).
A pigment (Evans blue: 40 mg/kg) was administered to the femoral vein of a guinea pig anesthetized with pentobarbital (30 mg/kg, i.p.) and immediately after that, SP (1 μg/kg) was intravenously injected to induce accentuation of vascular permeability. Fifteen minutes after the injection, the guinea pig was sacrificed under anesthesia with chloroform and the amount of the pigment leaked into the primary bronchus site was measured in accordance with Harada's method (J. Pharm. Pharmacol. 23, 218(1971)). A test substance was suspended in a 0.5% tragacanth suspension and orally administered to a guinea pig 1 hour before induction by SP. Its inhibitory action was determined by the ratio of the pigment leaked from the test-substance-administered group to that from the non-administered group. In Table 1, 50% inhibitory dose (ID50) and inhibitory rate in the case of oral administration at 3.3 mg/kg are shown.

T2 sequence (P30547 whole entry): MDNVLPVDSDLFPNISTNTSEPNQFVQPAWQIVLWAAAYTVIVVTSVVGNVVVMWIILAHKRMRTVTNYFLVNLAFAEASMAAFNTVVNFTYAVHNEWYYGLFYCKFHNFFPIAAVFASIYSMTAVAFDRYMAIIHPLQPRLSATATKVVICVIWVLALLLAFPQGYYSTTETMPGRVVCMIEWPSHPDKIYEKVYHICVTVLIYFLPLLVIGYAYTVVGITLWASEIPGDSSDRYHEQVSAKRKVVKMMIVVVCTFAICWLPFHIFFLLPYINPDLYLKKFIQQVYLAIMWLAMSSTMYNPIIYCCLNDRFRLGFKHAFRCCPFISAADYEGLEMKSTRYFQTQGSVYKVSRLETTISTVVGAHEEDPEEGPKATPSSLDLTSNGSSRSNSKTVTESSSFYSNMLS
NK1 receptors, sequence (P25103 whole entry): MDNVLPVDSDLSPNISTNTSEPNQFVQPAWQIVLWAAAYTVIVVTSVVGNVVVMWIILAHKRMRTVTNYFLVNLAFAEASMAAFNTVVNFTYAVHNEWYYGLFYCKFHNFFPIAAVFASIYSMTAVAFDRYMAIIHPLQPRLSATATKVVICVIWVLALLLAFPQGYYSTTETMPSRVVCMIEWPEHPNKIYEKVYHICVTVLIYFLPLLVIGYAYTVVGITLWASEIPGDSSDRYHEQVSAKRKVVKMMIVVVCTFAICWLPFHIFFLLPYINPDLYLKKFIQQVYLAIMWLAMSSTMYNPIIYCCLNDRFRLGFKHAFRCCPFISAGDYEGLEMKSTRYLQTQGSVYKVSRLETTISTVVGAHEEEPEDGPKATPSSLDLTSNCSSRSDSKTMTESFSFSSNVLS

CN(C[C@@H](CCN1CCC2(CCc3ccccc32)CC1)c1ccc(Cl)c(Cl)c1)C(=O)c1ccccc1 [B]
antagonistic activity against NK1 receptors in vitro (NK1 receptors): markedly weak

Cc1cc(C)cc(C(=O)N(C)C[C@@H](CCN2CCC3(CC2)CN(S(C)(=O)=O)c2ccccc23)c2ccc(Cl)c(Cl)c2)c1 [Compound A, reference compound]
ED50 (NK2 receptor; guinea pig, guinea pigs, intravenous injection of test substance, read-out: ID50 (the source's name)): > 10 mg/kg
ID50 (mg/kg, p.o.) (NK1 receptor): greater than 10 mg/kg

COc1cc(C(=O)N2CCO[C@](CCN3CCC4(CC3)c3ccccc3C[S@@+]4[O-])(c3ccc(Cl)c(Cl)c3)C2)cc(OC)c1OC.Cl [Compound of Ex. 1, 1-{2-[(2R)-(3,4-Dichlorophenyl)-4-(3,4,5-trimethoxybenzoyl)morpholin-2-yl]ethyl}spiro[benzo(c)thiophene-1(3H),4′-piperidin]-(2S)-oxide hydrochloride]
ID50 (mg/kg, p.o.) (NK2 receptor): 0.51 mg/kg
Inhibitory rate (%) on oral administration at 3.3 mg/kg (NK1 receptor): 48.0%
ID50 (mg/kg, p.o.) (NK1 receptor): 5.1 mg/kg

COc1cc(C(=O)N2CCOC(CCN3CCC4(CC3)c3ccccc3C[S+]4[O-])(c3ccc(Cl)c(Cl)c3)C2)cc(OC)c1OC.O=C(O)/C=C/C(=O)O [Compound of Ex. 2, 1-{2-[(2R)-(3,4-Dichlorophenyl)-4-(3,4,5-trimethoxybenzoyl)morpholin-2-yl]ethyl}spiro[benzo(c)thiophene-1(3H),4′-piperidin]-(2S)-oxide fumarate]
ID50 (mg/kg, p.o.) (NK2 receptor): 0.54 mg/kg
Inhibitory rate (%) on oral administration at 3.3 mg/kg (NK1 receptor): 46.8%
